Consider three compounds from patent US8940748B2, “Iminothiadiazine dioxide compounds as BACE inhibitors, compositions, and their use” (Merck Sharp & Dohme Corp., priority 2009, dated 2015).

In general, efflux ratio refers to a quotient of directional permeabilities that is used to spot active efflux. What is called Ki is the equilibrium dissociation constant of an inhibitor or competing ligand from its target.

Where two headings read alike, the source gives them in different places.

One data set deals with P-gp. In words: Caco-2 bi-directional permeability. The settings on record: human, Caco-2. The format is in vitro ADME. In general terms: Passage across Caco-2 layers is used to estimate intestinal permeability.
Data set [1] concerns the target soluble human BACE1 catalytic domain (Homo sapiens (Human), UniProt P56817). In words: BACE1 HTRF FRET assay. To be noted: Ki calculated from IC50 using the Cheng-Prusoff equation; read-out: BACE-1 Ki. It is filed as biochemical.
Data set [2] deals with purified human autoBACE-2 (Homo sapiens (Human), UniProt Q9Y5Z0). In words: BACE-2 assay (BACE-HTRF, time-resolved endpoint proteolysis). To be noted: Ki calculated from IC50 using the Cheng-Prusoff equation. The format is biochemical.
Description: Inhibitor IC50s at purified human autoBACE-2 were determined in a time-resolved endpoint proteolysis assay that measures hydrolysis of the QSY7-[sequence]-Eu-amide FRET peptide substrate (BACE-HTRF assay). […] DMSO was present at 5% final concentration in the assay. Following laser excitation of sample wells at 320 nm, the fluorescence signal at 620 nm was collected for 400 ms following a 50 μs delay on a RUBYstar HTRF plate reader (BMG Labtechnologies). Raw RFU data was normalized to maximum (1.0 nM BACE/DMSO) and minimum (no enzyme/DMSO) RFU values. […] The Ki values were calculated from the IC50 using the Cheng-Prusoff equation.
Data set [3] deals with endogenous rat Aβ1-40 (Aβ40) in cortex. Briefly: Cortical Aβ40 in rats after oral dosing (Luminex-based immunodetection). The format is in vivo. The settings on record: read-out: Change in rat cortex Aβ40.
Description: The following procedures were used.
Male CD rats (˜100 g; Crl:CD(SD); Charles River Laboratories, Kingston, N.Y.) were group housed and acclimated to the vivarium for 5-7 days prior to use in a study. Compounds were formulated in 20% hydroxypropyl-β-cyclodextrin and administered orally with a dosing volume of 5 ml/kg for rats. Three h after drug administration, rats were euthanized with excess CO2. The brain was removed from the skull and immediately frozen on dry ice. All tissues were stored at −70° C. until Aβ quantification.
Ab585 was labeled with biotin (b-Ab585) by first dialyzing the antibody sample extensively versus PBS (pH 7.8) to remove impurities, followed by dilution to between 1 and 2 mg/mL protein concentration. EZ-Link Sulfo-NHS-LC-Biotin (Pierce) was dissolved in PBS (pH 7.8) at a concentration of 1 mg/mL immediately prior to use. Ab585 was labeled with EZ-Link Sulfo-NHS-LC-biotin using a 10:1 biotin:antibody ratio by incubation at room temperature for 1 hour. The labeling reaction was quenched by addition of 1.0 M glycine to a final concentration of 0.1 M followed by 10 minute incubation at room temperature. Glycine was removed by extensive dialysis versus PBS.
The antibody was coupled to the beads using the Bio-Plex Amine Coupling Kit (Bio-Rad) as per the manufacturer's recommendations.
Rat cortex Aβ40 levels were measured from guanidine HCl extracts of individual rat cortices using a Luminex-based immunodetection assay. Rat brains were thawed briefly at 37° C. and both mid- and hindbrain regions were removed. The remaining material, consisting primarily of cortex (˜800 mg) was carried through the guanidine extraction procedure. Cortices were added to a 2 ml BioPur tube (Eppendorf) along with a 6.35 mm chrome-coated steel ball and 1.0 ml of sucrose homogenization buffer (20 mM HEPES [pH 7.5], 50 mM KCl, 50 mM sucrose, 2 mM EDTA, 2 mM EGTA supplemented with complete protease inhibitors [Roche, EDTA-free]). Samples were then homogenized by agitation for 1.5 min at 30 cycles/sec in a MM300 tissue mixer (Retsch®). The resulting cortical homogenate was extracted with guanidine-HCl by mixing 67 μl of homogenate with 133 μl of 5 M Guanidine HCl, 50 mM Tris HCl (pH 8.0). To maximize the efficiency of Aβ extraction, samples were vortexed and then sonicated for 2 minutes in an ice bath using an Ultrasonics XL cup horn sonicator at a power setting of 8 (Heat Systems, Inc.). Insoluble material was removed by ultracentrifugation using a using a TLA-55 rotor in a TL-100 benchtop centrifuge (Beckman) at 100,000×g for 30 minutes. The resulting supernatant was then either diluted 1:10 in 5 M guanidine HCl, 0.05 M Tris HCl (pH 8.0) for protein analysis (BCA protein assay, Pierce Biochemicals) or assayed neat for Aβ40 levels. The Luminex rodent Aβ40 assay was performed as follows. First, 96 well filter binding plates (Millipore, catalogue # MSBVN12) were wetted with 100 μl of 1×LAβ40 buffer (0.05 M HEPES [pH 7.5], 0.2% BSA, 0.2% Tween-20, 0.15 M NaCl) by vacuum filtration on a Millipore 96-well manifold. The plate bottom was sealed and 100 μl of 1×LAβ40 buffer was added to each well followed by addition of 50 μl each of G2-10:COOH beads (1000 beads/well) and 50 μl b-Ab585 at 0.5 μg/ml in 1×LAβ40 buffer. Guanidine HCl was added to synthetic rodent Aβ40 standards in order to control for the effect of guanidine in brain extracts on the assay performance. Ten microliters of cortical extract, rodent Aβ40 standards or cortical extract from amyloid precursor protein knockout mice (to define background immunoreactivity) was added to each well. Plates were covered and incubated overnight at 4° C. Following the incubation, wells were cleared by vacuum and washed twice with 100 μl of 1×LAβ40 buffer on a Millipore manifold.
In the next data set the test system is Caco-2 cell line. In words: Caco-2 bi-directional permeability. It is filed as in vitro ADME. To be noted: permeability apical to basolateral.

Chain of purified human autoBACE-2 (Q9Y5Z0 63-473 limits assumed): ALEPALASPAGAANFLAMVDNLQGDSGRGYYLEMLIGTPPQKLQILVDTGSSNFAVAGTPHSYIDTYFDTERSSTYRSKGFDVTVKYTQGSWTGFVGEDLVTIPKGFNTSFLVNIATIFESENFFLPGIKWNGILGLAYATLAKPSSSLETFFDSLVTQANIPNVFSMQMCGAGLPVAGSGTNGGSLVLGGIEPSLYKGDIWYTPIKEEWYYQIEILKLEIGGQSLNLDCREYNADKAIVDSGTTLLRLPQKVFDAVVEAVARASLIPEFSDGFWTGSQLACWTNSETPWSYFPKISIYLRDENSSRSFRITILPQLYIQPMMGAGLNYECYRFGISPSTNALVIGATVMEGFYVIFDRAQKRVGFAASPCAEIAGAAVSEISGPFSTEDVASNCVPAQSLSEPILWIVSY
Chain of soluble human BACE1 catalytic domain (P56817 75-416): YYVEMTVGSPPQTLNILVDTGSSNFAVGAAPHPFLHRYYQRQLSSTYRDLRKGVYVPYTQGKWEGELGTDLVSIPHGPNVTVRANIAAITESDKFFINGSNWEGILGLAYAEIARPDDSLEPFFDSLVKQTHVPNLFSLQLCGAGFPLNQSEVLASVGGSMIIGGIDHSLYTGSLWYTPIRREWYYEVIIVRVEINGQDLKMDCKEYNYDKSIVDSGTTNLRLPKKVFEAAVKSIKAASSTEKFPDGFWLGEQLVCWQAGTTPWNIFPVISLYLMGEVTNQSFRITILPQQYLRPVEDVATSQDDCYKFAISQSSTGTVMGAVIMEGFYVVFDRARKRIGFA
Description for Caco-2 cell line: (§1) The bi-directional permeability with efflux potential of selected compounds of the invention vs. otherwise structurally identical iminopyrimidinones (collectively referred to as test compounds, shown in the table below) were assessed using Caco-2 cell line. The Caco-2 cells were maintained in DMEM (Dulbecco's Modified Eagle Medium) containing 10% fetal bovine serum, 1% non-essential amino acids, 2 mM L-glutamine, and 1% penicillin-streptomycin in an incubator at ˜37° C. in an atmosphere of 5% CO2 and about 90% relative humidity. The cell culture medium was changed three times weekly. Caco-2 cell monolayers were grown on polyethylene terephthalate filters using 24-well BD Falcon™ Cell Culture Insert Plates (0.33 cm^2 insert area, 1 μm pore size; BD BioSciences, Bedford, Mass.). The culture medium of the plate was changed every other day until used for the transport experiment (21-28 days post seeding).
(§2) The transport buffer (TM) was Hank's balanced salt solution (HBSS) with 10 mM HEPES and 25 mM glucose (pH 7.4) for dosing and TM with 4% bovine serum albumin for receiver (pH 7.4). The bi-directional permeability of the test compounds were tested at concentrations of 1, 10 and 100 μM was measured in triplicate with 2-hr incubation. The cell monolayer integrity was monitored with pre- and post-experimental trans-epithelial electrical resistance and post-experimental Lucifer Yellow (LY) permeability with 1 hr incubation.
(§3) The apparent permeability, recovery and efflux ratio values were calculated using the following equations:
(§4) where, • dCR/dt: The slope of the accumulative concentration in the receiver compartment versus time incubation (μM·s^−1) • C0hr: Donor concentration (μM) immediately after dosing • CD, final: Donor concentration (μM) at the end of incubation • S: Membrane surface area (cm^2) • VD: Volume of donor compartment (mL) • VR: Volume of receiver compartment (mL) • Papp-BLtoAP: Permeability from basolateral (BL) to apical (AP) transport
Description for P-gp: as §1, §2, §3, §4

In the case of `CN1C(=N)N[C@](C)(c2cc(NC(=O)c3ccc(C(F)(F)F)cn3)ccc2F)CS1(=O)=O` [Example 26], in the data set with P-gp, the efflux ratio at 2 h came to 2.9. The Ki in data set [1] was 1.26 nM; in data set [2], 2.46 nM. Also, the change in vivo at 10 mg/kg in data set [3] (rats, 3 h after a 10 mg/kg oral dose, vs vehicle cohort) was -33%.

In the case of `Cc1ccc(C(=O)Nc2ccc(F)c([C@]3(C)CC(=O)N(C)C(=N)N3)c2)nc1` [Iminopyrimidinone 35], the “Caco-2 AP→BL” value with Caco-2 cell line worked out at 0 nm/s.

As for `CN1C(=N)N[C@](C)(c2cc(NC(=O)c3ccc(Cl)cn3)ccc2F)CC1=O` [Iminopyrimidinone 34, reference compound], the “Caco-2 AP→BL” value in the data set with Caco-2 cell line came out at 0 nm/s. Moreover, in data set [3] (po, 3 h), the change in vivo at 10 mg/kg is -19%.
